The values that follow are results of earlier work, collected in patent US7847105B2, “Methods and compounds for preparing CC-1065 analogs” (Medarex, Inc., priority 2005, dated 2010).

For data set [1] the following is noted: both in vitro and in experimental animals.
Another data set concerns experimental animals. The following applies: reason why it cannot be used in humans.

For CC-1065, in data set [1], the “antitumor and antimicrobial activity” value is “potent antitumor and antimicrobial activity”. Besides, in the data set with experimental animals, the “toxicity in experimental animals” value is reported as “causes delayed death”.
